Patent US20110119780A1, “SCREENING FOR NON-GENOTOXIC CARCINOGENS” (priority 2008, published 2011)
Values joined by “and” are separate entries in the source; they are usually repeats but may differ in a detail not shown here. Equal entries are not always repeated. Where two headings read alike, the source gives them in different places.

Legend:
[1] = parameters: species or system mice; details: mouse, in vivo, po, 50 mg/kg
Procedure: Animals were treated either with 4 daily doses of Wy-14,643/corn oil (50 mg/kg, orally) or with corn oil alone, as shown in Table 2. Approximately 24 hr after the last dose, all mice were sacrificed using an increasing concentration of CO2. Liver and plasma were collected for analysis. Following treatment with Wy-14,643 or the vehicle (corn oil), the mice were sacrificed and their livers removed and weighed. […] The concentration of inducing agent was of supplied chemical, without any correction for purity. The volume administered was 10 ml/kg bodyweight. […] On the day of termination the mice were weighed, the body weights recorded, and then transferred to a suitable room for post mortem. Approximately 24 hrs after treatment, the mice will be killed by exposure to a rising concentration of CO2.

[2] = system: cyanide-insensitive palmitoyl-CoA oxidation; experiment: Cyanide-insensitive palmitoyl CoA oxidation in mouse liver (crude mitochondria); format: in vivo; details: for PCO oxidation, NAD + red.: crude mitochondrial fraction of liver, 50 mg/kg orally x4 daily, individual mice, 50 mg/kg
Procedure: Measurements of cyanide-insensitive pCoA oxidation in crude mitochondrial fractions were performed as described.

Cyp4a protein = details: WT mice; liver microsomes; 50 mg/kg orally x4 daily
Procedure: Henderson, University of Dundee, UK). The standard used was APFO-induced WT rat liver microsomes (1 μg protein loaded).
To investigate the downstream effects of PPARα activation, the expression of Cyp4a proteins was evaluated by immunoblot analysis in liver microsomes from WT and hPPARα mice.
Individual liver microsomal samples were analysed by immunoblotting for Cyp4a. Protein concentration was measured using the CXR microlowry method. Quantification of Cyp4a protein in mouse liver microsomes was carried out. A murine his-tagged Cyp4a recombinant standard was loaded onto the NU-PAGE gel.

Cyp4a activity = details: mouse, in vivo
Procedure: Lauric acid hydroxylation activity measurements in liver microsomes were performed.
Liver microsomes from each available animal were evaluated for Cyp4a activity by measuring lauric acid hydroxylation (FIG. 19, Tables 17-18).

[3] = format: in vivo, mice; details: for Diluted Chol / Diluted HDL / Diluted LDL / Diluted Trig: dilution factor 2; for Diluted Chol / Diluted HDL / Diluted LDL / Diluted Trig / Normalised Chol / Normalised HDL / Normalised LDL / Normalised Trig: individual mice
Procedure: The plasma was processed by taking blood from the terminated mice by cardiac puncture into lithium/heparin-coated tubes. Following removal into suitable tubes for plasma preparation, terminal blood samples taken by cardiac puncture were mixed on a roller for 10 min then cooled on ice. Red blood cells were removed by centrifugation (2,000-3,000 rpm for 10 min at 8-10° C.). Immediately after centrifugation, the supernatant (plasma) was collected in eppendorfs and kept on wet ice. Plasma was transferred into cryovials for clinical chemistry and immediately flash frozen in liquid nitrogen, then stored at approximately −70° C. […] In order to investigate potential hepatotoxicity caused by Wy-14,643 treatment, markers of liver damage, alanine aminotransferase (ALT), aspartate aminotransferase (AST) and alkaline phosphatase (ALP) were measured in WT and hPPARα mice (Tables 6-8). Liver related plasma biomarkers, albumin (ALB), conjugated and total bilirubin (BIL-D and BIL-T respectively), cholesterol, high density lipoprotein (HDL-C), low density lipoprotein (LDL-C) and triglycerides were also investigated in all available plasma samples in order to characterise basal hepatic function in hPPARα mice relative to WT mice (Tables 9-15).

[4] = WT mice, plasma, 50 mg/kg orally x4 daily, 50 mg/kg
[5] = WT mice, plasma, 50 mg/kg orally x4 daily, n = 3
[6] = WT mice, plasma, % mean own control
[7] = hPPARα mice, plasma, 50 mg/kg orally x4 daily, 50 mg/kg

In the case of `Cc1cccc(Nc2cc(Cl)nc(SCC(=O)O)n2)c1C` [Wy-14,643], the “Body weights, % Mean” value [1] is reported as 98%, the “Body weights, Mean” value [1] is reported as 26 g and the “Liver body weight ratios, % Mean” value [1] is reported as 139%. The “Liver body weight ratios, Mean” value [1] was 6.46%, the “Liver weights, % Mean” value [1] was 135% and the “Liver weights, Mean” value [1] was 1.69 g. For the same compound, the “PCO oxidation, % MEAN” value ([2]; WT mice, % mean own control) was 265%, the “PCO oxidation, NAD + red.” value ([2]; WT mice) was 79 nmol/min/mg and 73 nmol/min/mg and 82 nmol/min/mg and the “PCO oxidation, NAD + red., MEAN” value ([2]; WT mice, n = 3) was 78 nmol/min/mg. For the same compound, the “cyanide-insensitive pCoA oxidation, induction relative to vehicle controls” value ([2]; both mouse lines (WT, hPPARα), crude mitochondrial fractions) was “approximately 3 fold”, the “PCO oxidation, NAD + red.” value ([2]; hPPARα mice) was 41 nmol/min/mg and 53 nmol/min/mg and the “Cyp4a protein expression (immunoblot, 50 kD band)” value (Cyp4a protein) was “marked induction”. The “Formation of 11-OH lauric acid, % MEAN” value (Cyp4a activity) was 308%, the “Formation of 11-OH lauric acid, MEAN” value (Cyp4a activity) was 3.0 nmol/min/mg and the “Formation of 12-OH lauric acid, % MEAN” value (Cyp4a activity) was 1669%. For the same compound, the “Formation of 12-OH lauric acid, MEAN” value (Cyp4a activity) was 9.2 nmol/min/mg, the “triglyceride concentrations, decrease compared to corresponding control mice” value ([3]; WT mice, p<0.05) was roughly 50% and the “Diluted Chol” value [3, 4] was 1.25 mmol/L and 1.02 mmol/L and 1.40 mmol/L. The “Diluted HDL” value [3, 4] was 1.28 mmol/L and 1.02 mmol/L and 1.36 mmol/L, the “Diluted LDL” value [3, 4] was 0.12 mmol/L and 0.08 mmol/L and 0.14 mmol/L and the “Diluted Trig” value [3, 4] was 0.27 mmol/L and 0.21 mmol/L and 0.31 mmol/L. For the same compound, the “Normalised Chol” value [3, 4] was 2.50 mmol/L and 2.04 mmol/L and 2.80 mmol/L, the “Normalised HDL” value [3, 4] was 2.56 mmol/L and 2.04 mmol/L and 2.72 mmol/L and the “Normalised LDL” value [3, 4] was 0.24 mmol/L and 0.16 mmol/L and 0.28 mmol/L. The “Normalised Trig” value [3, 4] was 0.54 mmol/L and 0.42 mmol/L and 0.62 mmol/L, the “Cholesterol, Mean” value [3, 5] was 2.45 mmol/L and the “HDL, Mean” value [3, 5] was 2.44 mmol/L. The “LDL, Mean” value [3, 5] was 0.23 mmol/L, the “Triglycerides, Mean” value [3, 5] was 0.53 mmol/L and the “Cholesterol, % Mean” value [3, 6] was 97%. For the same compound, the “HDL, % Mean” value [3, 6] was 103%, the “LDL, % Mean” value [3, 6] was 89% and the “Triglycerides, % Mean” value [3, 6] was 56%. For the same compound, the “Diluted Chol” value [3, 7] was 1.18 mmol/L and 1.47 mmol/L, the “Diluted HDL” value [3, 7] was 1.14 mmol/L and 1.46 mmol/L and the “Diluted LDL” value [3, 7] was 0.07 mmol/L and 0.11 mmol/L. The “Diluted Trig” value [3, 7] was 0.64 mmol/L and 0.60 mmol/L, the “Normalised Chol” value [3, 7] was 2.36 mmol/L and 2.94 mmol/L and the “Normalised HDL” value [3, 7] was 2.28 mmol/L and 2.92 mmol/L. The “Normalised LDL” value [3, 7] was 0.14 mmol/L and 0.22 mmol/L, the “Normalised Trig” value [3, 7] was 1.28 mmol/L and 1.20 mmol/L and the “ALP, % Mean” value ([3]; mouse, in vivo) was 129%. The “ALT, % Mean” value ([3]; mouse, in vivo) was 117%, the “AST, % Mean” value ([3]; mouse, in vivo) was 121% and the “Albumin, % Mean” value ([3]; mouse, in vivo) was 101%. For the same compound, the “BIL-D, % Mean” value ([3]; mouse, in vivo) was 22%, the “BIL-T, % Mean” value ([3]; mouse, in vivo) was 69% and the “ALP, Mean” value ([3]; mouse, in vivo, po, 50 mg/kg) was 129 U/L. The “ALT, AST and ALP concentration (plasma markers of hepatotoxicity)” value ([3]; mouse, in vivo, po, 50 mg/kg) was “unaltered”, the “ALT, Mean” value ([3]; mouse, in vivo, po, 50 mg/kg) was 34 U/L and the “AST, Mean” value ([3]; mouse, in vivo, po, 50 mg/kg) was 119 U/L. For the same compound, the “Albumin, Mean” value ([3]; mouse, in vivo, po, 50 mg/kg) was 38 g/L, the “BIL-D, Mean” value ([3]; mouse, in vivo, po, 50 mg/kg) was 0.08 µmol/L and the “BIL-T, Mean” value ([3]; mouse, in vivo, po, 50 mg/kg) was 17 µmol/L. The Plasma albumin levels ([3]; mouse, in vivo, po, 50 mg/kg) was “unaltered” and the “triglyceride concentrations, decrease compared to corresponding control mice” value ([3]; the two hPPARα mice) was 25% and 29%.
